Data published in patent US8940943B2, “Cosmetic preparations” (Cognis IP Management GmbH, priority 2010, dated 2015).

Tests used:
human skin [1] = experiment: occlusive epicutaneous 24 h patch test (skin compatibility)
Method: The di(2-propylheptyl)ether obtained according to production example 2 was compared in an occlusive epicutaneous 24 h patch test against the commercially available di-n-octyl ether. […] 24 after application the patch was removed, after a further 6 hours the first visual assessment was carried out, further assessments were carried out 24, 48 and 72 hours after the patch was removed.
The assessment was based on a scale from 0 (no reaction) to 4 (strong reaction) in the categories: erythema formation, edema formation, formation of scales (=squamation) and formation of cracks (=fissuration). A so-called total irritation score RSS value was found from the values obtained.

human skin [2] = experiment: in-vivo patch test, 24 hours on human skin, skin reddening or irritation; details: compared to diethylhexyl ether, water and surfactant solution as negative and positive standards
Method: In an in-vivo patch test, the test substances are applied on human skin and left there for 24 hours. Then an assessment is made with respect to possible occurrence of skin reddening or irritation. As comparison, in each case water and a surfactant solution are tested as negative and positive standards.

Row | Compound | total irritation score RSS (human skin [1]; human, in vivo, 24 h) | skin compatibility (human skin [2]) | total irritation score RSS (human skin [1]; 22 test subjects, applied on back, occlusive 24 h patch (Finn Chambers), assessed 6, 24, 48 and 72 h after patch removal, scale 0-4 for erythema, edema, squamation, fissuration)
1 | CCCCCC(CCC)COCC(CCC)CCCCC (stereo not shown) [Di(2-propylheptyl)ether] | 3.62 | improved skin compatibility | 
2 | CCCCCCCCOCCCCCCCC [Di-n-alkyl ether (Cetiol ® OE), di-n-octyl ether] | 7.1 |  | 
3 | CCCCCCCCCCCCOS(=O)(=O)[O-].[Na+] [Positive control, sodium dodecyl sulfate] |  |  | 7.95
